According to ChEMBL document CHEMBL3098090, “Cytotoxic activity of gypenosides and gynogenin against non-small cell lung carcinoma A549 cells” (Bioorg Med Chem Lett, 2014):
≈ marks a conversion by molar mass, not a printed value.

system: A549; experiment: Cytotoxicity against human A549 cells after 48 hrs by MTT assay; format: functional, cell-based; details: A549, 48 h

Going from `CC(C)=CCC[C@](C)(O[C@@H]1O[C@H](CO[C@@H]2OC[C@@H](O)[C@H](O)[C@H]2O)[C@@H](O)[C@H](O)[C@H]1O)[C@H]1CC[C@]2(C)[C@@H]1[C@H](O)C[C@@H]1[C@@]3(C)C[C@@H](O)[C@H](O[C@@H]4O[C@H](CO)[C@@H](O)[C@H](O)[C@H]4O[C@@H]4O[C@H](CO)[C@@H](O)[C@H](O)[C@H]4O)C(C)(C)[C@@H]3CC[C@]12C` to `CC(C)=CCC[C@](C)(O[C@@H]1O[C@H](CO)[C@@H](O)[C@H](O)[C@H]1O)[C@H]1CC[C@]2(C)[C@@H]1[C@H](O)C[C@@H]1[C@@]3(C)C[C@@H](O)[C@H](O[C@@H]4O[C@H](CO)[C@@H](O)[C@H](O)[C@H]4O[C@@H]4O[C@H](CO)[C@@H](O)[C@H](O)[C@H]4O)C(C)(C)[C@@H]3CC[C@]12C`, the IC50 falls from 106 µg/mL (≈ 96.7 µM) to 52.6 µg/mL (≈ 54.6 µM) (2-fold).

`CC(C)=CCC[C@](C)(O)[C@H]1CC[C@]2(C)[C@@H]1[C@H](O)C[C@@H]1[C@@]3(C)C[C@@H](O)[C@H](O[C@@H]4O[C@H](CO)[C@@H](O)[C@H](O)[C@H]4O[C@@H]4O[C@H](CO)[C@@H](O)[C@H](O)[C@H]4O)C(C)(C)[C@@H]3CC[C@]12C` and `CC(C)=CCC[C@@](C)(O)[C@H]1CC[C@]2(C)[C@@H]1[C@H](O)C[C@@H]1[C@@]3(C)C[C@@H](O)[C@H](O[C@@H]4O[C@H](CO)[C@@H](O)[C@H](O)[C@H]4O[C@@H]4O[C@H](CO)[C@@H](O)[C@H](O)[C@H]4O)C(C)(C)[C@@H]3CC[C@]12C` are within 1.5-fold of each other in IC50: 34.9 µg/mL (≈ 43.6 µM) for the first, 51 µg/mL (≈ 63.6 µM) for the second.

Compared with `CC(C)=CCC[C@](C)(O)[C@H]1CC[C@]2(C)[C@@H]1[C@H](O)C[C@@H]1[C@@]3(C)C[C@@H](O)[C@H](O)C(C)(C)[C@@H]3CC[C@]12C`, `CC(C)=CCC[C@](C)(O)[C@H]1CC[C@]2(C)[C@@H]1[C@H](O)C[C@@H]1[C@@]3(C)CC[C@H](O[C@@H]4O[C@H](CO)[C@@H](O)[C@H](O)[C@H]4O[C@@H]4O[C@H](CO)[C@@H](O)[C@H](O)[C@H]4O)C(C)(C)[C@@H]3CC[C@]12C` is 4.4-fold higher in IC50: 12.5 µg/mL (≈ 26.3 µM) for the first, 55.4 µg/mL (≈ 70.5 µM) for the second.
